Key:
[1] = oral, eight-week-old male untrained mice; cited from earlier work
Hippo pathway = assay: TEAD luciferase reporter (8xGT-II) as readout for Hippo signaling; type: cell-based; details: for inhibition of Hippo signaling: FIG. 8; for activity of Hippo reporter: FIG. 5
Experimental: (§1) FIGS. 1A-1C. Screening for small molecules inhibitors of the Hippo pathway. FIG. 1A. Hippo associated luciferase reporter (8xGT-II) was used to screen a series of 30 thiadiazole derivatives. Cells transfected with the construct were incubated in the absence (c) or presence of the compounds at 10 μM for 24 hours. Luciferase activity expressed in arbitrary units (AU) was measured in protein extracts. Data represent average for three replicates ±SE. FIG. 1B. Structure of S21 compound. FIG. 1C. Activity of S21 on Hippo versus CMV-Luciferase reporter measured as described above.
(§2) FIG. 2. S21 as a common inhibitor of Wnt, TGF beta and Hippo. 293 cells were transfected with luciferase reporters corresponding to each pathway and then exposed to S21, the Wnt inhibitor Pyrvinium (PYR) or the TGF beta inhibitor SB-431 at the indicated concentrations. After 24 hours, the cells were lysed and luciferase activity measured. Data represent average of three replicates ±SE.
(§3) FIG. 5. Effect of S21 versus Pirfenidone on activity of Wnt, TGF beta and Hippo reporters. 293 cells were transfected with luciferase reporters corresponding to the three pathways and then incubated with the indicated concentration of S21 or Pirfenidone for 24 hours. Luciferase activity was measured in the protein extract. Each point represents average of three determinations ±SE.
(§4) A TEAD luciferase reporter system was used as a readout for Hippo signaling, to screen a series of thiadiazole derivatives synthesized in our laboratory. For this, 293 cells transfected with the reporter construct were incubated in the absence or the presence of individual compounds at 10 μM concentration each for 24 hours. Proteins were then extracted and used as a source of enzyme of luciferase activity.

melanoma cells WM266 [2] = assay: Tumor xenograft mouse model; type: in vivo
Experimental: FIGS. 9A-9B. Effect of C19 (mg/Kg) on tumor growth (FIG. 9A) and body weight (FIG. 9B). Data represents 7 replicates ±SE. *p<0.05., **p<0.01.
To obtain information regarding the efficacy of C19 in a tumor xenograft mouse model, nude mice (strain CD1) were injected subcutaneously with melanoma cells WM266. After tumors became palpable (˜5 mm in diameter), the mice were randomized into control and treatment groups (n=7). The control group was injected intraperitoneally with the vehicle (DMSO 3% in 200 μl of DMEM) and the treatment groups were injected with increasing doses of C19 (in mg/Kg) dissolved in 200 μl of vehicle solution. The animals received 3 injections starting on day 15 and separated by three days. Tumor volumes and body weight were measured on a daily basis.

AMPK = assay: Phosphorylation (activation) of AMPK; type: cell-based; details: for activation of AMPK: FIG. 8
Experimental: (§5) FIGS. 10A-10F. FIGS. 10A and 10B. Dose and time dependent effects of C19 on phosphorylation of AMPK. In FIG. 10B, C19 was used at 5 μM. FIG. 10C. Effect of AICAR on phosphorylation of AMPK. FIG. 10D. Confirmation in different cell lines. FIGS. 10E and 10F. Effect of C19 on phosphorylation of downstream AMPK targets ACC and UIK1.
(§6) Investigation of the mechanism by which C19 exert its activity led to the discovery that, in addition to its effect on MST/Lats, this compound acts as a potent activator of the metabolic enzyme and tumor suppressor kinase AMPK (FIG. 10).

ACC = assay: Phosphorylation of downstream AMPK target ACC; type: cell-based; details: FIG. 10E
Experimental: as §5, §6

Ulk1 = assay: Phosphorylation of downstream AMPK target Ulk1; type: cell-based; details: FIG. 10F
Experimental: as §5, §6

Wnt = Wnt luciferase reporter in 293 cells; type: cell-based; details: for activity of Wnt reporter: FIG. 5
Experimental: as §2, §3
(§7) By comparison, none of Wnt or TGF beta inhibitors had affected the Hippo pathway reporter.

TGF beta = TGF beta luciferase reporter in 293 cells; type: cell-based; details: for activity of TGF beta reporter: FIG. 5
Experimental: as §2, §3, §7

[3] = tested on: luciferase driven by the CMV promoter; assay: CMV-Luciferase reporter (specificity control); type: cell-based
Experimental: as §1, §4

MST1 = target: T1, MST1 (Homo sapiens, UniProt Q13043); assay: Western blot, phosphorylation of core kinase MST1; type: cell-based; details: dose-dependent, FIG. 3A
T1 construct: endogenous in cells
T1 sequence (Q13043 1-487): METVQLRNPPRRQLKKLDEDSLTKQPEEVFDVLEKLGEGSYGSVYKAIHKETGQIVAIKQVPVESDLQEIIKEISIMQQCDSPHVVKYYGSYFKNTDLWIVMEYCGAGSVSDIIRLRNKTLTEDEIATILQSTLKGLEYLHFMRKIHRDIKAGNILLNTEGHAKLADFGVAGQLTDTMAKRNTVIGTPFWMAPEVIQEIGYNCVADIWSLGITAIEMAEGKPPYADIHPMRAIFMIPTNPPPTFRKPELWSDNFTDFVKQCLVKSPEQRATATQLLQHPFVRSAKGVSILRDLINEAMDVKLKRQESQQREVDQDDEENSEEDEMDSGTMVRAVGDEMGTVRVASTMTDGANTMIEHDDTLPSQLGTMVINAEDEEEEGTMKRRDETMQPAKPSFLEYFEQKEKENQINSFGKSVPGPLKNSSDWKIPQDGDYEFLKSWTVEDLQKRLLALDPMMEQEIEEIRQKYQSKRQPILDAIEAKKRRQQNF
Experimental: (§8) FIGS. 3A-3B. Effect of S21 on key elements of the Hippo pathway. Western blot analysis was carried out to determine the effect of S21 on expression and phosphorylation of MST/Lats (FIG. 3A) and nucleocytoplasmic localization of YAP and beta catenin (FIG. 3B).
(§9) To gain insights into the mechanism(s) by which S21 inhibits the Hippo pathway, its effect on activation of the core kinases MST1 and Lats1 was analyzed.

Lats1 = target: T2, Lats1 (Homo sapiens, UniProt O95835); assay: Western blot, phosphorylation of core kinase Lats1; type: cell-based; details: dose-dependent, FIG. 3A
T2 construct: endogenous in cells
T2 sequence (O95835 1-1130): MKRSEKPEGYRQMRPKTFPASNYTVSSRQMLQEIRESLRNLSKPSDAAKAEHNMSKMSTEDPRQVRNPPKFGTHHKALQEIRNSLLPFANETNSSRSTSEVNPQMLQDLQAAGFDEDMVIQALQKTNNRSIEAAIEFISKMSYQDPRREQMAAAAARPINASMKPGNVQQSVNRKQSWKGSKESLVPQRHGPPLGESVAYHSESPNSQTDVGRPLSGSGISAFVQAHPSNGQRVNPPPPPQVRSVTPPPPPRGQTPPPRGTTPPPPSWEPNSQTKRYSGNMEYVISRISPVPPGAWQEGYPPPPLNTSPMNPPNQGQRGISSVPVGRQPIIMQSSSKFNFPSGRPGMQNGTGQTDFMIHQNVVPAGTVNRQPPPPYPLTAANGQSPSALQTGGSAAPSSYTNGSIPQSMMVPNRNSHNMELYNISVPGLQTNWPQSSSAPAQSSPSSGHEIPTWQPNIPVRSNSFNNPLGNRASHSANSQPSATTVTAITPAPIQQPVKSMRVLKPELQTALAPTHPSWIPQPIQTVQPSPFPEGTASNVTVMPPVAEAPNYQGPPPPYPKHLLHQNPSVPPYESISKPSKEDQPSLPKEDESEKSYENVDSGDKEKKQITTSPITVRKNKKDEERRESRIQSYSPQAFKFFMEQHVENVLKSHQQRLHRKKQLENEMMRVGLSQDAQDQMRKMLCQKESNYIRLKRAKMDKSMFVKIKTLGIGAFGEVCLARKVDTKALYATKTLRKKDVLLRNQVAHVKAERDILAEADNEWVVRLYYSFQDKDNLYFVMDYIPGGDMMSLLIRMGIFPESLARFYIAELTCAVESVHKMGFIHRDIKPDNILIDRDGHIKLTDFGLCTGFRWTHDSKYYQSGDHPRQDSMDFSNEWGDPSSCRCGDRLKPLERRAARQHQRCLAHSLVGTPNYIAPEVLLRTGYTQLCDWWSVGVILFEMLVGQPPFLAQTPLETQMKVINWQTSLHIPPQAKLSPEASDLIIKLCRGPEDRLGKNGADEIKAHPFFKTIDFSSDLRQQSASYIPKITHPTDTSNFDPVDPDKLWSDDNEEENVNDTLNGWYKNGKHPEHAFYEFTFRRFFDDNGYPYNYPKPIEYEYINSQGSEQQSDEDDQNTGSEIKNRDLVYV
Experimental: as §8, §9

YAP = assay: Western blot, nucleocytoplasmic localization of YAP; type: cell-based; details: FIG. 3B
Experimental: as §8, §9

beta catenin = assay: Western blot, nucleocytoplasmic localization of beta catenin; type: cell-based; details: FIG. 3B
Experimental: as §8, §9

melanoma cells WM266 [4] = assay: Western blots of EMT genes and downstream target genes; type: cell-based; details: WM266, 24 hours
Experimental: (§10) FIGS. 4A-4D. Inhibition of EMT, cell migration, proliferation and resistance to therapy by S21. FIG. 4A. Western blots showing inhibition of various EMT genes in melanoma cells WM266 exposed to the indicated concentrations of S21 for 24 hours. FIG. 4B. Cell monolayer scratch assay depicting inhibition of cell migration by S21. FIG. 4C. Effect of S21 on cell proliferation measured after 5 days of incubation. FIG. 4D. Cell response to doxorubicin was measured in the presence of and absence of S21. Data in panels C and D represent average of three determinations ±SE.
(§11) Future studies will be needed to elucidate the underlying mechanism.

cell migration = assay: Cell monolayer scratch assay; type: cell-based; details: FIG. 4B
Experimental: as §10, §11

[5] = tested on: three melanoma and one colon cancer cell lines; assay: Cell proliferation after 5 days of incubation; type: cell-based
Experimental: as §10, §11

melanoma cell = assay: Cell response to doxorubicin with and without S21; type: cell-based; details: FIG. 4D
Experimental: as §10, §11

fibroblasts = assay: Expression of fibrotic markers (QPCR, Western blot); type: cell-based; details: RNA and protein level
Excerpt: FIGS. 6A-6B. S21 inhibits expression of pro-fibrotic and pro-EMT genes. FIG. 6A. QPCR analysis depicting expression levels of pro-EMT ad fibrosis genes in the absence and the presence of S21. FIG. 6B. Western blot analysis showing the effect of S21 on expression of fibronectin, collagen and vimentin. Beta catenin was used as a loading control.

[6] = tested for up to 100 μM, data not shown

SMILES: NC(=O)c1ncn([C@@H]2O[C@H](CO)[C@@H](O)[C@H]2O)c1N [AICAR, 5-aminoimidazole-4-carboxamide 1-D-ribonucleoside]
- increase in endurance without exercise [1]: 44%

SMILES: OCCCCOc1nsnc1-c1ccc(Cl)c(Cl)c1 [C19, 4-((4-(3,4-dichlorophenyl)-1,2,5-thiadiazol-3-yl)oxy)butan-1-ol]
- inhibition of Hippo signaling (Hippo pathway): inhibition
- inhibition of tumor growth (melanoma cells WM266 [2]; 20 mg/Kg intraperitoneal, 3 injections from day 15): about 90%
- tumor growth (melanoma cells WM266 [2]; intraperitoneal, increasing doses, 3 injections from day 15): suppresses tumor growth in a dose dependent manner
- signs of toxicity or death (melanoma cells WM266 [2]; throughout the experiment): No signs of toxicity or death
- body weight compared to controls (melanoma cells WM266 [2]; treatment groups, FIG. 9B): did not change significantly
- activation of AMPK (AMPK): activation
- potency on AMPK relative to AICAR (AMPK; FIG. 10C): at least 10 times
- effect on AMPK in different cell lines (AMPK; FIG. 10D): validated
- phosphorylation (activation) of AMPK (AMPK; concentration and time dependent, FIGS. 10A and 10B): induced phosphorylation
- phosphorylation of ACC (ACC): induced phosphorylation
- phosphorylation of Ulk1 (Ulk1): induced phosphorylation

SMILES: Cc1ccc(=O)n(-c2ccccc2)c1 [Pirfenidone, reference compound]
- activity of Hippo reporter (Hippo pathway; 293 cells, 24 hours): without effect
- inhibition of Hippo reporter (Hippo pathway; [6]): no inhibition was detected
- activity of Wnt reporter (Wnt; 293 cells, 24 hours): without effect
- inhibition of Wnt reporter (Wnt; [6]): no inhibition was detected
- activity of TGF beta reporter (TGF beta; 293 cells, 24 hours): without effect
- inhibition of TGF beta reporter (TGF beta; [6]): no inhibition was detected

SMILES: OCCCCOc1nsnc1-c1ccc(Cl)cc1 [S21]
- inhibition of TEAD luciferase reporter activity (Hippo signaling) (Hippo pathway; 293 cells, 10 μM, 24 hours): strongest inhibition
- activity of Hippo reporter (Hippo pathway; 293 cells, 24 hours): dose dependent inhibition
- inhibition of Hippo signaling (Hippo pathway): inhibition
- inhibition of luciferase driven by the CMV promoter [3]: did not inhibit
- inhibition of Wnt signaling reporter (Wnt; 293 cells, 24 hours, FIG. 2): remarkably inhibited
- activity of Wnt reporter (Wnt; 293 cells, 24 hours): dose dependent inhibition
- inhibition of TGF beta signaling reporter (TGF beta; 293 cells, 24 hours, FIG. 2): remarkably inhibited
- activity of TGF beta reporter (TGF beta; 293 cells, 24 hours): dose dependent inhibition
- phosphorylation of MST1 (MST1): induced phosphorylation
- phosphorylation of Lats1 (Lats1): induced phosphorylation
- nuclear and cytoplasmic levels of YAP (YAP): reduced nuclear localization and enhanced cytoplasmic levels
- nuclear and cytoplasmic levels of beta catenin (beta catenin): reduced nuclear localization and enhanced cytoplasmic levels
- expression of EMT-associated gene Zeb1 (melanoma cells WM266 [4]): strongly inhibits
- level of Cyclin D (melanoma cells WM266 [4]): reduced
- level of Hes (melanoma cells WM266 [4]): reduced
- level of Myc (melanoma cells WM266 [4]): reduced
- cell migration (cell migration): strongly inhibited
- response of metastatic WM266 versus non-metastatic WM115 ([5]; melanoma cell lines): responded better
- anti-proliferative action ([5]; three melanoma and one colon cancer cell lines): anti-proliferative action
- melanoma cell response to doxorubicin in presence of compound (melanoma cell): significantly enhanced
- expression of Collagen (fibroblasts): dose dependent decrease
- expression of Finbronectin (fibroblasts): dose dependent decrease
- activation of AMPK (AMPK): activation
